{
  "source": "patent US20220177841A1",
  "about": "“EX VIVO METHODS FOR PRODUCING A T CELL THERAPEUTIC AND RELATED COMPOSITIONS AND METHODS” (Myst Therapeutics LLC, priority 2019, published 2022)",
  "key": {"[1]": {"tested_on": "expanded human T cells from three healthy donors", "test": "T cell adjuvant high throughput screen, total viable CD3+ cell count", "format": "cell-based", "conditions": "6 days; for total viable CD3+ cell count compared with DMSO treatment control: 10 μg/mL antibodies, 25 μM Z-VAD-FMK, irrespective of activation status (with or without OKT3)", "experimental": "Cells were expanded from PBMC derived from Ficoll gradient separation from three healthy donor's apheresis material. […] Cells were next seeded into gas permeable 100M culture vessels and expanded for 7-14 days to achieve a large bank of T cells, and cryopreserved. […] Half of wells were additionally supplemented with 50 ng/mL OKT3, a human anti-CD3 monoclonal antibody. In total, 15 test adjuvant agents were tested for their impact on cell viability in the presence and absence of anti-CD3 activation (see Table E3). Cells were cultured for 6 days total, including a 50% medium exchange on culture day 3, and monitored for total viable CD3+ cell count.\nTotal viable CD3+ cell count for cells grown in the absence and presence of OKT3 stimulation are shown in FIGS. 27A-C and FIGS. 28A-C, respectively. The results shown are for the following concentrations of adjuvant: 10 μg/mL for tested antibodies (Tavolixizumab, Oxelumab, Ipilimumab, Tocilizumab, Urelumab, Pembrolizumab, Varlilumab, anti-GITR MK-1248, anto-human FasL); 25 μM for Z-VAD-FMK pan-caspase inhibitor; 250 nM for HSP inhibitor NVP-HSP990; and 1000 IU/mL for cytokine (IL-7, IL-15 or IL-21)."}, "[2]": {"tested_on": "PBMC from three healthy donors", "test": "T cell expansion with Fas ligand or caspase inhibition, anti-CD3 stimulation", "format": "cell-based, human", "conditions": "OKT3 activation, caspase inhibitor 2 μM present continuously, replenished each media exchange", "experimental": "(§1) Apoptotic inhibitors directed against Fas- and caspase-mediated pathways were assessed to determine effects on tumor reactive T cells during manufacturing. The studies were carried out in healthy donors, and thus, stimulation of the T cells were carried out with anti-CD3 (OKT3) or anti-CD3/anti-CD28 stimulation in order to mimic conditions present in the tumor microenvironment (TME). Constant activation signals present in the tumor microenvironment, as can be stimulated by anti-CD3 or anti-CD3/anti-CD28 activation can be detrimental to T cell growth. Cellular viability and projected cell numbers were used to compare the impact of modulation of apoptotic pathways in both a transient and a continuous activation assay, the latter of which more closely recapitulates the tumor microenvironment.\nImmune Cell Serum Replacement (ThermoFisher) at 5%, and a final concentration of 2.0 mM of a L-alanyl-L-glutamine dipeptide form of glutamine (GlutaMAX Supplement; Thermofisher). Cells were then seeded into a 24-well gas permeable cell culture plate at a density of 2.14×10^5 cells/mL (7.5×10^5 cells/cm^2). […]\nCultures were maintained for at least 13 days with a 50% media exchange every other day beginning on culture day 2. Cell counts and viability were monitored every other day. […]"}, "[3]": {"tested_on": "PBMC from two healthy donors", "test": "T cell expansion with Fas ligand or caspase inhibition, anti-CD3/anti-CD28 stimulation (transient or continuous activation)", "format": "cell-based, human", "conditions": "2 μM", "experimental": "as §1\nCells were then seeded into a 24-well gas permeable cell culture plate at a density of 1.5×10^5 cells/mL (5.0×10^5cells/cm^2).\nCulture wells were assigned to one of two treatment groups, transient or continuous activation. For transient activation, anti-CD3/anti-CD28 paramagnetic beads (Dyanbeads™) were added to the culture media at a ratio of 1 bead per cell starting on culture day 0, and then were removed during media exchange on day 2. […]\nCell counts and viability were monitored every other day. […]"}, "[4]": {"tested_on": "CRC tumor fragment and SCS cultures", "test": "Caspase inhibition in tumor processing, fragment or SCS cultures", "format": "cell-based, human", "experimental": "Half of cultures contained media additionally supplemented with 2 μM of pan-caspase inhibitor Z-VAD-FMK which was replenished at each media exchange. Cultures were incubated at about 37° C. for a minimum of 18 days with a 50% medium exchange occurring every 2-3 days following culture day 5. Cell counts were performed on day 5 and at each medium exchange using the NC-200 Automated Cell Counter (ChemoMetec)."}, "[5]": {"tested_on": "PBMC from two healthy donors", "test": "Checkpoint modulators and costimulatory agonist antibodies on T cell phenotype, flow cytometry", "format": "cell-based, human", "conditions": "0.5, 1, 10, or 20 μg/mL; 50 ng/ml OKT3; 48 hours", "experimental": "Cells were then seeded into a 24-well gas permeable cell culture plate at a density of 5.0×10^5 cells/cm^2. Cells were activated for 48 hours using 50 ng/ml OKT3, a human anti-CD3 monoclonal antibody, and were additionally treated with agents as described below. Following 48 hours in culture, cells were analyzed for phenotype.\nCells were divided into 6 treatment groups, as follows: Ipilimumab (anti-CTLA4), Pembrolizumab (anti-PD1), Tavolixizumab (anti-TNFRSF4), Urelumab (anti-CD137), and Varlilumab (anti-CD27), as well as a no added agent control. For all test groups, cells in each treatment group were cultured in the presence of the monoclonal antibodies at 0.5, 1, 10, or 20 μg/mL.\nNone of the tested antibodies appeared to affect the memory differentiation state of the T cells. T cell phenotype was assessed for CD4+and CD8+cells independently via flow cytometry for markers of activation OX40, 41BB, CD107a, and PD1. Results are shown in FIG. 38 (CD3+), FIG. 39 (CD4+) and FIG. 40 (CD8+). Higher concentrations of Varlilumab, an agonist anti-CD27 antibody, promoted 41BB and CD107a expression on CD3+ T cells (FIG. 38B and 38C), CD4+ T cells (FIG. 39B and 39C) and CD8+ T cells (FIGS. 40B and 40C). Urelumab, an agonist CD137 receptor antibody, promoted 41BB expression on CD4 T cells (FIG. 39B) and CD8+ T cells (FIG. 40B). Pembrolizumab, an anti-PD-1 antagonist, decreased PD1 expression on CD4 T cells (FIG. 39D)"}, "[6]": {"tested_on": "cells processed from melanoma tumor fragments", "test": "Anti-CD3 stimulation on expansion of tumor-derived cells", "format": "cell-based, human", "experimental": "Cells processed from melanoma tumor fragments as described in Examples 1 and 2, were cultured in the presence or absence of 50 ng/mL OKT3, a human anti-CD3 monoclonal antibody. Cell cultures were carried out to between 14 and 31 days in either a conventional 6-well plate or a gas permeable culture plate with RPMI or OpTmizer media. […] About 50% of cellular media was exchanged every other day beginning on the 5th day of culture as described previously. Cells were then counted using the NC-200 Automated Cell Counter (Chemometec)."}, "[7]": {"tested_on": "T-cells from three healthy donors", "test": "Post-stimulation CD4+ and CD8+ activation markers, flow cytometry", "format": "cell-based, human", "conditions": "50 ng/mL OKT3, compared to culture in the absence of OKT3", "experimental": "Specific markers of activation on the CD4+ and CD8+ cell populations were measured using flow cytometry over a time course of 3-48 hours. Specifically, the following markers were assessed: CD38 and CD39 (FIG. 12A and FIG. 13A), CD134 and CD137 (FIG. 12B and FIG. 13B), and CD69 and CD90 (FIG. 12C and FIG. 13C)."}, "[8]": {"conditions": "presence versus absence of 50 ng/mL OKT3, 14 to 31 days"}},
  "note": "Entries after “also recorded” stand apart in the source; their conditions may differ. Peptide text beside a SMILES is read from it. * marks the point of attachment. Cbz = O=C(OCc1ccccc1)*; CH2F = FC*",
  "data": [
    {"compound": "COC(=O)C[C@H](NC(=O)[C@H](C)NC(=O)[C@@H](NC(=O)OCc1ccccc1)C(C)C)C(=O)CF", "note": "[Z-VAD-FMK, carbobenzoxy-valyl-alanyl-aspartyl-[O-methyl]-fluoromethylketone] (Cbz-Val-Ala-Asp(OMe)-CH2F)", "values": [
      {"measurement": "total viable CD3+ cell count compared with DMSO treatment control", "setting": "[1]", "result": "consistently higher viable cell counts than the DMSO treatment control"},
      {"measurement": "cell growth (total cell number)", "setting": "[2]", "result": "greatest cell growth across donors"},
      {"measurement": "cell growth (total cell number)", "setting": "[2]; listed as caspase inhibition", "result": "superior growth"},
      {"measurement": "total viable cell number and viability versus other conditions", "setting": "[3]; caspase inhibitor continuously", "result": "outperformed the other conditions"},
      {"measurement": "total viable cell number and viability versus other conditions", "setting": "[3]; caspase inhibitor transiently (day 0 only)", "result": "outperformed the other conditions"},
      {"measurement": "outgrowth of T cells", "setting": "[4]; SCS conditions", "result": "outgrowth of T cells was not observed"},
      {"measurement": "cell viability", "setting": "[4]; SCS culture, 2 μM replenished at each media exchange", "result": "similarly high"},
      {"measurement": "cell viability", "setting": "[4]; tumor fragment-derived culture, 2 μM replenished at each media exchange", "result": "high"},
      {"measurement": "outgrowth of cells (fold expansion, total viable cells)", "setting": "[4]; tumor fragment-derived culture, 2 μM replenished at each media exchange, minimum 18 days", "result": "outgrowth of cells was superior"}
    ]},
    {"compound": "Urelumab: agonist CD137 receptor antibody", "values": [
      {"measurement": "41BB expression on CD4+ T cells", "setting": "[5]", "result": "promoted"},
      {"measurement": "41BB expression on CD8+ T cells", "setting": "[5]", "result": "promoted"}
    ]},
    {"compound": "Oxelumab: anti-OX40L antibody", "values": [
      {"measurement": "total viable CD3+ cell count compared with DMSO treatment control", "setting": "[1]", "result": "consistently higher viable cell counts than the DMSO treatment control"}
    ]},
    {"compound": "Pembrolizumab: anti-PD1 antibody", "values": [
      {"measurement": "total viable CD3+ cell count compared with DMSO treatment control", "setting": "[1]", "result": "consistently higher viable cell counts than the DMSO treatment control"},
      {"measurement": "PD1 expression on CD4 T cells", "setting": "[5]", "result": "decreased"}
    ]},
    {"compound": "Varlilumab: agonist anti-CD27 antibody", "values": [
      {"measurement": "41BB expression on CD3+ T cells", "setting": "[5]", "result": "promoted"},
      {"measurement": "41BB expression on CD4+ T cells", "setting": "[5]", "result": "promoted"},
      {"measurement": "41BB expression on CD8+ T cells", "setting": "[5]", "result": "promoted"},
      {"measurement": "CD107a expression on CD3+ T cells", "setting": "[5]", "result": "promoted"},
      {"measurement": "CD107a expression on CD4+ T cells", "setting": "[5]", "result": "promoted"},
      {"measurement": "CD107a expression on CD8+ T cells", "setting": "[5]", "result": "promoted"}
    ]},
    {"compound": "IL-15: recombinant cytokine tested as T cell adjuvant", "values": [
      {"measurement": "dose response, cell number", "setting": "[1]; 62.5 IU/ml-1000 IU/ml", "result": "cell number increased with increasing concentration"}
    ]},
    {"compound": "OKT3: human anti-CD3 monoclonal antibody", "values": [
      {"measurement": "T cell expansion", "setting": "[6]; 50 ng/mL OKT3, 14 to 31 days, 300 or 6000 IU/mL IL-2", "result": "supported T cell expansion"},
      {"measurement": "fold expansion", "setting": "[6]; donor 6, all conditions, presence or absence of anti-CD3 stimulation", "result": "2-4 fold"},
      {"measurement": "fold expansion", "setting": "[6]; [8]", "result": "largely similar; also recorded: did not substantially impact"},
      {"measurement": "total cell number", "setting": "[6]; [8]", "result": "largely similar; also recorded: did not substantially impact"},
      {"measurement": "upregulation of activation markers (CD38, CD39, CD134, CD137, CD69, CD90) on CD8+ T cells", "setting": "[7]; 48 hours following stimulation", "result": "all assessed markers were upregulated to some extent"},
      {"measurement": "upregulation of activation markers (CD38, CD39, CD134, CD137, CD69, CD90) on CD4+ T cells", "setting": "[7]; first 48 hours following stimulation", "result": "all assessed markers were upregulated to some extent"}
    ]}
  ]
}
